From PMC7067850, “Identification of highly potent and selective inhibitor, TIPTP, of the p22phox-Rubicon axis as a therapeutic agent for rheumatoid arthritis” (Scientific Reports, 2020)

Key:
[1] = Pharmacokinetic study in male ICR mice (IP and IV); type: in vivo, mouse
Experimental: TIPTP at a dose of 0.5 mg/kg and 1 mg/kg was administered intravenously and intraperitoneally to male ICR mice. Blood samples were collected via the carotid artery at 0 (to serve as a control), 0.03, 0.16, 0.25, 0.5, 1, 2, 4, 6, and 24 h after administration of the compound. After centrifugation at 3000 rpm for 10 min, a 13.5 µL aliquot of plasma samples were stored at -20 C until analysis. Pharmacokinetic parameters were determined by a noncompartmental analysis using WinNonlin® (Pharsight Corporation, Mountain View, CA) program. The total area under the plasma concentration-time curve from time zero to the last measured time (AUClast) was calculated by the trapezoidal rule[…] method. Standard methods in the literature (M. Gibaldi, D. Perrier, Pharmacokinetics, second ed., Marcel-Dekker, New York, 1982.) were used to calculate the following pharmacokinetic parameters; the time averaged total body clearance (CL), total area under the first moment of plasma concentration-time curve from time zero to time infinity (AUC0-∞), terminal half-life, mean residence time (MRT), apparent volume of distribution at steady state (Vss). Concentrations of the compound in the above samples were analyzed using LC-MS/MS. To a 13.5 µL aliquot of plasma sample, a 60 µL aliquot of acetonitrile containing 1 µg/mL of internal standard (carbamazepine) was added. After vortex mixing and centrifugation at 6,000 rpm for 15 min, a […] of supernatant was added to 100μL distilled water and injected into LCMS/MS system. The LC-MS/MS system consisted of Agilent 1200 series HPLC system (Agilent, Santa Clara, CA) and API3200® triple-quadrupole mass spectrometer (Applied Biosystems-SCIEX, Concord, Canada). The HPLC mobile phases consisted of 0.1% formic acid in water (A) and acetonitrile (B). Chromatographic separation was achieved on a reversed-phase Atlantis T3 column (100 x 2.1 mm, 3 µm, Waters Corporation, Milford, MA) using gradient elution at a flow rate of 0.25 mL/min. The lower limit of quantitation of the compound in mice plasma was 9.7 ng/mL. The values of coefficients of correlation (R) were more than 0.997.

CYP2D6 = target: T1, CYP2D6 (Homo sapiens, UniProt P10635); assay: CYP450 inhibition assay in human liver microsomes; type: in vitro ADME
T1 construct: To human liver microsomes (0.25 mg/mL); from tissue; host or cells: human liver microsomes
T1 sequence (P10635 whole entry): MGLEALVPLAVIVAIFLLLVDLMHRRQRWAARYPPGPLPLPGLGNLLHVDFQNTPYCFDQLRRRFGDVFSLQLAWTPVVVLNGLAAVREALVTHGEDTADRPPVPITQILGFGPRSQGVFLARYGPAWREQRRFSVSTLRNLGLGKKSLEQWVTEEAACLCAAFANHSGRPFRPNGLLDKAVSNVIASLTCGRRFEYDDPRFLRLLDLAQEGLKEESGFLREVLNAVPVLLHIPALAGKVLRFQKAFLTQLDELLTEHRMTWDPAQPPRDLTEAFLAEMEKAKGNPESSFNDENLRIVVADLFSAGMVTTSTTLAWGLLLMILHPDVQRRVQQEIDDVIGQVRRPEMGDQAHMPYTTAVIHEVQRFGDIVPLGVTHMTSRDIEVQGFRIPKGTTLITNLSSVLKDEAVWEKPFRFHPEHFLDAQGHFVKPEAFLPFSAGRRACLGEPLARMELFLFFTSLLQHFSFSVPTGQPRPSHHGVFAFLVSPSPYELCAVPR
Experimental: (§1) All of CYP inhibition, microsomal stability and plasma stability experiments were performed by New Drug Development Center, the Daegu-Gyeongbuk Medical Innovation Foundation (DGMIF), South Korea. To human liver microsomes (0.25 mg/mL), 0.1 M phosphate buffer (pH 7.4), a cocktail of five probe substrates (Phenacetin 50 μM, Diclofenac 10 μM, S-mephenytoin 100 μM, Dextromethorphan 5 μM, and Midazolam 2.5 μM), and tested compounds were added at concentrations of 0 μM (as a control) and 10 μM. After incubation at 37 °C for 5 min, NADPH generation system solution was also added and incubated at 37 °C for 15 min again. To terminate the reaction, acetonitrile including internal standard (Terfenadine) was added, and the solution was centrifuged for 5 min (14 000 rpm, 4 °C). The supernatant was then injected into the LC-MS/MS system to simultaneously analyze the metabolites of the probe substrates and evaluate the % CYP inhibition of the tested compound.

CYP1A2 = target: T2, CYP1A2 (Homo sapiens, UniProt P05177); assay: CYP450 inhibition assay in human liver microsomes; type: in vitro ADME
T2 construct: To human liver microsomes (0.25 mg/mL); from tissue; host or cells: human liver microsomes
T2 sequence (P05177 1-516): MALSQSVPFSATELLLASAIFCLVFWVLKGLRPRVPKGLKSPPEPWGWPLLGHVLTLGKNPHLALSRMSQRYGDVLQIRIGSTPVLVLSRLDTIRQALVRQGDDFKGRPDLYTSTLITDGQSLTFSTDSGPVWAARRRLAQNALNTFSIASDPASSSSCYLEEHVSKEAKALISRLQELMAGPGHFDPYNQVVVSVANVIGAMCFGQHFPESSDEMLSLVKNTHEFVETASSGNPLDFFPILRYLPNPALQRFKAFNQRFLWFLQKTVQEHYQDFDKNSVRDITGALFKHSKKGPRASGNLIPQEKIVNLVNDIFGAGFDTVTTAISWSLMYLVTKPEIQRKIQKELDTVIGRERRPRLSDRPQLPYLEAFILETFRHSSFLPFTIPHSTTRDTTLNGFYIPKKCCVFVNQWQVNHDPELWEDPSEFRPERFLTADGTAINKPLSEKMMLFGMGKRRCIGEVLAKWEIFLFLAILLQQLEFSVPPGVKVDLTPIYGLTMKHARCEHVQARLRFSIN
Experimental: as §1

CYP3A4 = target: T3, CYP3A4 (Homo sapiens, UniProt P08684); assay: CYP450 inhibition assay in human liver microsomes; type: in vitro ADME
T3 construct: To human liver microsomes (0.25 mg/mL); from tissue; host or cells: human liver microsomes
T3 sequence (P08684 whole entry): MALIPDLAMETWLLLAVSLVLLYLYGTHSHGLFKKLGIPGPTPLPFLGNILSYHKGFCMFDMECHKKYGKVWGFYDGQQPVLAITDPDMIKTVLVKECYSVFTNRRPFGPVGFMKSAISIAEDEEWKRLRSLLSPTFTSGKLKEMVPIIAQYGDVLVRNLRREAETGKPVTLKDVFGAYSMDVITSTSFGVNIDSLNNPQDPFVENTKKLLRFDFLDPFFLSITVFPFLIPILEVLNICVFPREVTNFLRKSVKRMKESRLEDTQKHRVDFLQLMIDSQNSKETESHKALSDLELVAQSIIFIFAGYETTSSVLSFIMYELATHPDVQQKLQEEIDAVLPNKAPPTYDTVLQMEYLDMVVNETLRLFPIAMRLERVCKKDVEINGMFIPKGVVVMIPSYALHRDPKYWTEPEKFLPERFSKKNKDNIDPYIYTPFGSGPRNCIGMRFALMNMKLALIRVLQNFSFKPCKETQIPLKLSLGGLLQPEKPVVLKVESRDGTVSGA
Experimental: as §1

[2] = IP, 1 mg/kg, male ICR mouse plasma
[3] = IV, 0.5 mg/kg, male ICR mouse plasma

Which AUC(0-inf) [1, 2] does the source give for `C[C@@H](Oc1cccc(-n2cc3c(n2)CCCC3)c1)C(=O)Nc1nnc(C(F)(F)F)s1` [TIPTP, (R)-2-(3-(4,5,6,7-tetrahydro-2H-indazol-2-yl)phenoxy)-N-(5-(trifluoromethyl)-1,3,4-thiadiazol-2-yl)propanamide] here?
The AUC(0-inf) was 15100 ± 3410 ng·h/mL.

And the Cmax [1, 2]?
Its Cmax is 5590 ± 1430 ng/mL.

What about the MRT inf [1, 2] of the same compound?
Its MRT inf is 3.42 ± 0.43 h.

And the Tmax [1, 2]?
Its Tmax is 0.23 ± 0.04 h.

What about the half-life [1, 2] of the same compound?
Its half-life is 2.91 ± 0.14 h.

And the AUC(0-t) ([1]; IP, 1 mg/kg, male ICR mouse plasma, n = 5, mean ± SD)?
The AUC(0-t) was 15100 ± 3410 ng·h/mL.

What about the AUC(0-inf) [1, 3] of the same compound?
The AUC(0-inf) was 10000 ± 451 ng·h/mL.

And the MRT inf [1, 3]?
Its MRT inf is 2.57 ± 0.52 h.

What about the half-life [1, 3] of the same compound?
Its half-life is 3.67 ± 0.39 h.

What about the AUC(0-t) ([1]; IV, 0.5 mg/kg, male ICR mouse plasma, n = 3, mean ± SD) of the same compound?
The AUC(0-t) was 9980 ± 446 ng·h/mL.

What about the clearance ([1]; plasma, IV, 0.5 mg/kg, male ICR mouse) of the same compound?
The clearance was 0.832 mL/min/kg.

What about the Vd ([1]; plasma, IV, 0.5 mg/kg, male ICR mouse, read-out: Vss) of the same compound?
Its Vd is 0.128 ± 0.0246 L/kg.

And the “CYP (% of control activity @ 10 μM) 2D6” value (CYP2D6; 10 μM)?
The value was 98.2%.

And the “effect on the CYP2D6 isozyme” value (CYP2D6; in words)?
Its value is “negligible”.

What about the “CYP (% of control activity @ 10 μM) 1A2” value (CYP1A2) of the same compound?
The value was 45.7%.

And the “CYP (% of control activity @ 10 μM) 3A4” value (CYP3A4)?
The value was 76.6%.
